From patent publication US20020061514A1, “Assay for identifying modulators of chondrogenesis” (priority 2000, published 2002)
Each block holds one molecule with its values, some of them ahead of it.

What was measured:
Assay type in all cases: cell-based, mouse
[1] = system: pGL3(4X48) Sox9 responsive reporter gene; test: pGL3(4X48) luciferase reporter gene activity in transiently transfected primary limb mesenchymal cultures; conditions: for normalized RLU (pGL3(4X48) reporter gene activity): RLU values normalized to control reporter activity
Text: (§1) To increase reporter gene sensitivity, the Sox9 responsive reporter gene from 4X48-p89 luciferase (14) was subcloned into pGL3-basic (Promega). A fragment containing the reiterated (4 X 48) Sox9 binding sequence upstream of the mouse col II minimal promoter (−89 to +13) was liberated from 4X48-p89 plasmid by digestion with Bam HI and Hind III. This fragment was subcloned into the Bgl II and […] sites of pGL3-basic (Promega) to generate pGL3(4X48). To generate an EGFP-based col II reporter, the luciferase gene within pGL3(4X48) was replaced with EGFP-N1 (Clontech). For expression of genes in primary cultures a modified version of pSG5 (Stratagene), pSG5HS, was used which contains two additional restriction endonuclease sites, Hind III and Spe I. The myogenin promoter-luciferase construct was made by subcloning a 1.14 kB fragment of the myogenin promoter (containing the region from pGZ1092) from plasmid pGBB into pGL3-basic. The cardiac actin promoter-luciferase vector was generated by subcloning a fragment of the cardiac actin promoter from −440 to +6 into pGL3-basic.
(§2) Limb mesenchymal cells were harvested from embryonic age 11.25-11.75 mouse embryos as previously described (19). To establish proximal or distal cultures the proximal half of each limb bud was separated from the distal half, and each pool of limb fragments was processed separately. The cells were resuspended at a density of 1.5−2×10^7 cells/ml. For transfection purposes, cells were mixed with a DNA/FuGene6 mixture in a 2:1 ratio. FuGene6-DNA mixtures were prepared according to the manufacturer's instructions (Roche Biomolecular). Briefly, 1 μg of reporter, 1 μg of expression vector and 0.05 μg of pRLSV40 (Promega) were mixed for a total of ˜2 μg DNA in 100 μl of media and FuGene6. Fifty microlitres of the DNA mixture was transferred into a sterile 1.5 ml eppendorf tube, followed by 100 μl of cells. Cells were gently triturated and 10 μl was used to seed a single well of a 24-well culture dish. After 1.5 hrs in a humidified CO2 incubator, 1 ml of media containing compounds of interest was added to each well and was subsequently replaced 24 hrs following transfection.
Analysis of reporter gene activity using the Dual Luciferase Assay System was done following the manufacturer's instructions (Promega). Briefly, ˜48 hrs post-transfection, cells were washed once with PBS and lysed in 100 μl of Passive Lysis Buffer for 20 min. Firefly and renilla luciferase activities were determined using 40 μl of lysate in a 96-well plate reading luminometer (Molecular Devices).

[2] = system: pGL3-4X48-EGFP reporter (Sox9 activity); test: pGL3(4X48)-EGFP reporter in primary limb mesenchymal cultures; conditions: 10 ng/ml, 64 hours post-transfection, vs untreated control cultures
Text: as §1
Limb mesenchymal cells were harvested from embryonic age 11.25-11.75 mouse embryos as previously described (19). To establish proximal or distal cultures the proximal half of each limb bud was separated from the distal half, and each pool of limb fragments was processed separately. […]

limb mesenchymal cells = test: Alcian blue staining of cartilage nodules in primary limb mesenchymal cultures; conditions: 10 ng/ml, 2 and 4 days, vs untreated cultures
Protocol: as §2

normalized RLU (pGL3(4X48) reporter gene activity) ([1]; protein added at 10 ng/ml): 4.2 | increase in reporter gene activity ([1]; treatment of reporter gene-transfected cells, 10 ng/ml (FIG. 3H)): ~4.5 fold
Molecule: BMP-4: bone morphogenetic protein added to cultures at 10 ng/ml
number of EGFP-expressing (fluorescing) cells [2]: enhanced | cartilage nodule number (alcian blue) (limb mesenchymal cells): dramatic increase in nodule number

normalized RLU (pGL3(4X48) reporter gene activity) ([1]; co-transfected expression construct): 0.5
Molecule: Wnt3a

normalized RLU (pGL3(4X48) reporter gene activity) ([1]; protein added at 100 ng/ml): 0.3
B1: Noggin: BMP pathway protein added at 100 ng/ml (protein, UniProt Q13253 28-232, looked up)
Noggin: QHYLHIRPAPSDNLPLVDLIEHPDPIFDPKEKDLNETLLRSLLGGHYDPGFMATSPPEDRPGGGGGAAGGAEDLAELDQLLRQRPSGAMPSEIKGLEFSEGLAQGKKQRLSKKLRRKLQMWLWSQTFCPVLYAWNDLGSRFWPRYVKVGSCFSKRSCSVPEGMVCKPSKSVHLTVLRWRCQRRGGQRCGWIPIQYPIISECKCSC
